Laboratory results as given in US12415832B2, “B-catenin/B-cell Lymphoma 9 protein-protein interaction inhibiting peptidomimetics” (University of South Florida, priority 2019, dated 2025).

What was measured:
β-catenin/BCL9 PPI = target: T1, β-catenin/BCL9 PPI (Homo sapiens, UniProt P35222); experiment: AlphaScreen competitive inhibition assay of β-catenin/BCL9 PPI; assay type: binding; settings: for IC50 / Ki: AlphaScreen, mean ± SD; for IC50: 5 nM biotinylated BCL9, 40 nM His6-tagged FL-β-catenin; for Ki: Ki derived from IC50 by method of Nikolovska-Coleska et al.
T1 construct: 40 nM His6-tagged FL-β-catenin
T1 sequence (P35222 1-781): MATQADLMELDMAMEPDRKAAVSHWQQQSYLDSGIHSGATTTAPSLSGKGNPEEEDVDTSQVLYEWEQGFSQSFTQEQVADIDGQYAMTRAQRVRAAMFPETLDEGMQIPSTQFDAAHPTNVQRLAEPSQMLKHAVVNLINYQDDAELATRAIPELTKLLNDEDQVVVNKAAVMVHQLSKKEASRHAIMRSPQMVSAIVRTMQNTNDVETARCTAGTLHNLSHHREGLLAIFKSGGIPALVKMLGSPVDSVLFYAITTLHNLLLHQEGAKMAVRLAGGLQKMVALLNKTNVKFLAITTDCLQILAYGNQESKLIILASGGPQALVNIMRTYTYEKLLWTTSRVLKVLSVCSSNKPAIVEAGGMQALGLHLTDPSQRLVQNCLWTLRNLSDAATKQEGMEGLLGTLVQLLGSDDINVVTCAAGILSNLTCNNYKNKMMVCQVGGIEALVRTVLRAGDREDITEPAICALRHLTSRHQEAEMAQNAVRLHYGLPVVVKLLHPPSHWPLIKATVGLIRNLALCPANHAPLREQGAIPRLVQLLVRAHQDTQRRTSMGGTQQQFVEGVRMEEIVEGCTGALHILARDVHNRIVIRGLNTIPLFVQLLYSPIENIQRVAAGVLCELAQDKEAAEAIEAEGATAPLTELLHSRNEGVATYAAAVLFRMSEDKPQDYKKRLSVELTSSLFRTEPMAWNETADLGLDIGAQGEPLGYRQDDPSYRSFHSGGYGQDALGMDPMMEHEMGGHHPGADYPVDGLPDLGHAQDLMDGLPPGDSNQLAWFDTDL
Procedure: For the competitive inhibition assays of β-catenin/BCL9 PPI, the negative control (equivalent to 0% inhibition) refers to 5.0 nM biotinylated BCL9, 40 nM His6-tagged FL-β-catenin, and 10 μg/mL of donor and acceptor beads in a final volume of 25 μL of assay buffer, but no tested inhibitor present. The positive control (equivalent to 100% inhibition) refers to 5.0 nM biotinylated BCL9 and 10 μg/mL of donor and acceptor beads in a final volume of 25 μL of assay buffer. For the β-catenin/BCL9 assay, 5 nM biotinylated BCL9 and 40 nM His6-tagged FL-β-catenin were incubated in assay buffer at 4° C. for 30 min. Different concentrations of the tested inhibitor were added and incubated in 20 μL of assay buffer at 4° C. for another 1 h. All of the above assay plates were covered and gently mixed on an orbital shaker. The donor and acceptor beads were then added to the plates to a final concentration of 10 μg/mL in 25 μL of assay buffer. The mixture was incubated for 1 h at 4° C. before detection. The IC50 value was determined by nonlinear least-squares analysis of GraphPad Prism 5.0. The Ki values were derived from the IC50 values using a method reported by Nikolovska-Coleska et al. The assays were conducted under the conditions reported by Nikolovska-Coleska et al.'s equation for determining the Ki values. All of the experiments were performed in triplicate. The results were expressed as mean±standard deviation.

SW480 cell = assay type: cell-based; settings: for IC50: 72 h
Procedure: Colorectal cancer cell lines SW480 were seeded in 96-well plates at 5×10^3 cells/well, maintained overnight at 37° C., and incubated in the presence of inhibitors at various concentrations. Cell viability was monitored after 72 h using a freshly prepared mixture of one-part phenazine methosulfate (PMS, Sigma) solution (0.92 mg/mL) and 19 parts MTs agent (3-(4,5-dimethylthiazol-2-yl)-5-(3-carboxymethoxyphenyl)-2-(4-sulfophenyl)-2H-tetrazolium, inner salt, Promega) solution (2 mg/mL). Cells were incubated in 10 μL of this solution at 37° C. for 3 h, and A490 was measured. The effect of each compound is expressed as the concentration required to reduce A490 by 50% (IC50) relative to vehicle-treated cells. Experiments were performed in triplicate and repeated for three times.

β-catenin = target: T2, β-catenin (Homo sapiens, UniProt P35222); experiment: FP assay, binding of peptides with β-catenin (Kd); settings: for decrease in binding affinity relative to 2: Ala substitution; for Kd: fluorescence polarization, 50 nM FITC labeled peptide, 1×PBS
T2 sequence (P35222 1-781): T1 sequence (P35222 1-781)

[1] = tested on: Wnt/β-catenin signaling transactivation (TOPFlash); experiment: Wnt-responsive TOPFlash luciferase reporter assay in SW480 cells; settings: read-out: TOPFlash luciferase IC50 (estimated), 24 h
Excerpt: Wnt-specific TOPFlash/FOPFlash luciferase reporter assays were used to evaluate the effects of these compounds on β-catenin-dependent transcription. For the TOPFlash reporter construct, the firefly luciferase reporter gene was placed downstream of three wild-type Tcf binding sites. For the FOPFlash reporter construct, the firefly luciferase reporter gene was place downstream of three mutant Tcf binding sites. The high expression of firefly luciferase in TOPFlash assays was controlled by tandem Tcf binding sites. The renilla luciferase reporter construct (pCMV-RL) was used as the internal control to normalize luciferase reporter signals and eliminate systematic errors such as cell viability, transfection effect, etc.
SW480 cells were co-transfected with 60 ng of the TOPFlash or FOPFlash firefly luciferase reporter gene and 40 ng of renilla luciferase pCMV-RL normalization reporter. Cells were cultured in DMEM and 10% FBS at 37° C. for 24 h, and different concentrations of inhibitors or DMSO were added. After 24 h, the luciferase reporter activity was measured using the Dual-Glo system (E2940, Promega). Normalized luciferase activity in response to the treatment with inhibitors was compared with that obtained from the cells treated with DMSO. Experiments were performed in triplicate.

A549 cell = assay type: cell-based; settings: 72 h

Compound | IC50 (β-catenin/BCL9 PPI) | Ki (β-catenin/BCL9 PPI) | IC50 (SW480 cell) | decrease in binding affinity relative to 2 (β-catenin) | Kd (β-catenin) | IC50 [1] | IC50 (A549 cell) | binding activity, in words (β-catenin) | ability to inhibit β-catenin/BCL9 PPI, in words (β-catenin/BCL9 PPI) | improvement of IC50 compared to the peptide 1 (β-catenin/BCL9 PPI) | improvement of Ki compared to the peptide 1 (β-catenin/BCL9 PPI) | effect on SW480 cell proliferation, in words (SW480 cell; MTS) | improvement of Kd compared to the peptide 1 (β-catenin)
CCC(C)[C@@H](CN(CC(=O)N[C@@H](CC(C)C)CN(CC(=O)N[C@@H](CC(C)C)CN(CC(N)=O)S(=O)(=O)Cc1ccccc1)S(=O)(=O)CC(C)C)S(C)(=O)=O)NC(=O)CN(C[C@H](CCCNC(=N)N)NC(=O)CN(C[C@H](CC(C)C)NC(=O)CN(C[C@@H](NC(=O)CN(C[C@H](CC(C)C)NC(=O)CN(C[C@H](CCCNC(=N)N)NC(=O)CN(C[C@H](CCCNC(=N)N)NC(=O)CN(C[C@H](CCC(=O)O)NC(C)=O)S(C)(=O)=O)S(C)(=O)=O)S(C)(=O)=O)S(=O)(=O)CCN)C(C)O)S(=O)(=O)CC(C)C)S(=O)(=O)CCN)S(=O)(=O)CC(C)C (some centres unmarked) [Peptide 3] | 1.04 ± 0.21 µM | 0.92 ± 0.17 µM | 12.8 ± 2.9 µM | about 1.5 fold | 0.86 µM | 26.5 µM | 43.7 ± 3.62 µM | – | – | – | – | – | –
CCC(C)[C@@H](CN(CC(=O)N[C@@H](C)CN(CC(=O)N[C@@H](CC(C)C)CN(CC(N)=O)S(=O)(=O)Cc1ccccc1)S(=O)(=O)CC(C)C)S(C)(=O)=O)NC(=O)CN(C[C@H](CCCNC(=N)N)NC(=O)CN(C[C@H](CC(C)C)NC(=O)CN(C[C@@H](NC(=O)CN(C[C@H](CC(C)C)NC(=O)CN(C[C@H](CCCNC(=N)N)NC(=O)CN(C[C@H](CCCNC(=N)N)NC(=O)CN(C[C@H](CCC(=O)O)NC(C)=O)S(=O)(=O)CCN)S(C)(=O)=O)S(C)(=O)=O)S(=O)(=O)CCN)C(C)O)S(=O)(=O)CC(C)C)S(=O)(=O)CCN)S(=O)(=O)CC(C)C (some centres unmarked) [Peptide 11] | 17.4 ± 3.35 µM | 15.7 ± 3 µM | – | – | 8.26 µM | – | – | inferior binding activity | – | – | – | – | –
CCC(C)[C@@H](CN(CC(=O)N[C@@H](CC(C)C)CN(CC(=O)N[C@@H](C)CN(CC(N)=O)S(=O)(=O)Cc1ccccc1)S(=O)(=O)CC(C)C)S(C)(=O)=O)NC(=O)CN(C[C@H](CCCNC(=N)N)NC(=O)CN(C[C@H](C)NC(=O)CN(C[C@@H](NC(=O)CN(C[C@H](CC(C)C)NC(=O)CN(C[C@H](CCCNC(=N)N)NC(=O)CN(C[C@H](C)NC(=O)CN(C[C@H](CCC(=O)O)NC(C)=O)S(C)(=O)=O)S(C)(=O)=O)S(C)(=O)=O)S(=O)(=O)CCN)C(C)O)S(=O)(=O)CC(C)C)S(=O)(=O)CCN)S(=O)(=O)CC(C)C (some centres unmarked) [Peptide 12] | > 10 µM | > 10 µM | – | – | > 10 µM | – | – | – | completely losing their ability to inhibit β-catenin/BCL9 PPI | – | – | – | –
CC(=O)N[C@@H](CCC(=O)O)CN(CC(=O)N[C@@H](CCCNC(=N)N)CN(CC(=O)N[C@@H](CCCNC(=N)N)CN(CC(=O)N[C@@H](CC(C)C)CN(CC(=O)N[C@H](CN(CC(=O)N[C@@H](CC(C)C)CN(CC(=O)N[C@@H](CCCNC(=N)N)CN(CC(=O)N[C@@H](CCCNC(=N)N)CN(CC(=O)N[C@@H](CC(C)C)CN(CC(=O)N[C@@H](CC(C)C)CN(CC(N)=O)S(=O)(=O)Cc1ccccc1)S(=O)(=O)CC(C)C)S(C)(=O)=O)S(=O)(=O)CC(C)C)S(=O)(=O)CCN)S(=O)(=O)CC(C)C)C(C)O)S(=O)(=O)CCN)S(C)(=O)=O)S(C)(=O)=O)S(=O)(=O)CCN (some centres unmarked) [Peptide 9] | 12.9 ± 2.15 µM | 11.6 ± 1.92 µM | – | – | 5.14 µM | – | – | inferior binding activity | – | – | – | – | –
CCC(C)[C@@H](CN(CC(=O)N[C@@H](CC(C)C)CN(CC(=O)N[C@@H](CC(C)C)CN(CC(N)=O)S(=O)(=O)Cc1ccccc1)S(=O)(=O)CC(C)C)S(C)(=O)=O)NC(=O)CN(C[C@H](CCCNC(=N)N)NC(=O)CN(C[C@H](C)NC(=O)CN(C[C@@H](NC(=O)CN(C[C@H](CC(C)C)NC(=O)CN(C[C@H](CCCNC(=N)N)NC(=O)CN(C[C@H](CCCNC(=N)N)NC(=O)CN(C[C@H](CCC(=O)O)NC(C)=O)S(=O)(=O)CCN)S(C)(=O)=O)S(C)(=O)=O)S(=O)(=O)CCN)C(C)O)S(=O)(=O)CC(C)C)S(=O)(=O)CCN)S(=O)(=O)CC(C)C (some centres unmarked) [Peptide 5] | 2.71 µM | 2.43 µM | 132 ± 18.9 µM | – | 1.97 µM | – | 230 ± 27.5 µM | – | – | – | – | – | –
CC(=O)N[C@@H](CCC(=O)O)CN(CC(=O)N[C@@H](CCCNC(=N)N)CN(CC(=O)N[C@@H](CCCNC(=N)N)CN(CC(=O)N[C@@H](CC(C)C)CN(CC(=O)N[C@H](CN(CC(=O)N[C@@H](CC(C)C)CN(CC(=O)N[C@@H](CCCNC(=N)N)CN(CC(=O)N[C@@H](C)CN(CC(=O)N[C@@H](CC(C)C)CN(CC(=O)N[C@@H](CC(C)C)CN(CC(N)=O)S(=O)(=O)Cc1ccccc1)S(=O)(=O)CC(C)C)S(C)(=O)=O)S(=O)(=O)CC(C)C)S(=O)(=O)CCN)S(=O)(=O)CC(C)C)C(C)O)S(=O)(=O)CCN)S(C)(=O)=O)S(C)(=O)=O)S(=O)(=O)CCN (some centres unmarked) [Peptide 6] | 0.54 µM | 0.46 µM | 65.4 ± 7.06 µM | – | 0.16 µM | – | 150 ± 19.2 µM | – | – | ~3 fold | ~3 fold | relatively weak activity | ~6 fold
CCC(C)[C@@H](CN(CC(=O)N[C@@H](CC(C)C)CN(CC(=O)N[C@@H](C)CN(CC(N)=O)S(=O)(=O)Cc1ccccc1)S(=O)(=O)CC(C)C)S(C)(=O)=O)NC(=O)CN(C[C@H](CCCNC(=N)N)NC(=O)CN(C[C@H](CC(C)C)NC(=O)CN(C[C@@H](NC(=O)CN(C[C@H](CC(C)C)NC(=O)CN(C[C@H](CCCNC(=N)N)NC(=O)CN(C[C@H](CCCNC(=N)N)NC(=O)CN(C[C@H](CCC(=O)O)NC(C)=O)S(=O)(=O)CCN)S(C)(=O)=O)S(C)(=O)=O)S(=O)(=O)CCN)C(C)O)S(=O)(=O)CC(C)C)S(=O)(=O)CCN)S(=O)(=O)CC(C)C (some centres unmarked) [Peptide 7] | 1 ± 0.1 µM | 0.89 ± 0.08 µM | 46.6 ± 5.57 µM | about 1.5 fold | 0.7 µM | – | 120 ± 13.6 µM | – | – | – | – | – | –
CCC(C)[C@@H](CN(CC(=O)N[C@@H](CC(C)C)CN(CC(=O)N[C@@H](CC(C)C)CN(CC(N)=O)S(=O)(=O)Cc1ccccc1)S(=O)(=O)CC(C)C)S(=O)(=O)CC(C)C)NC(=O)CN(C[C@H](CCCNC(=N)N)NC(=O)CN(C[C@H](CC(C)C)NC(=O)CN(C[C@@H](NC(=O)CN(C[C@H](CC(C)C)NC(=O)CN(C[C@H](CCCNC(=N)N)NC(=O)CN(C[C@H](CCCNC(=N)N)NC(=O)CN(C[C@H](CCC(=O)O)NC(C)=O)S(=O)(=O)CCN)S(C)(=O)=O)S(C)(=O)=O)S(=O)(=O)CCN)C(C)O)S(=O)(=O)CC(C)C)S(=O)(=O)CCN)S(=O)(=O)CC(C)C (some centres unmarked) [Peptide 10] | 4.07 ± 0.59 µM | 3.65 ± 0.51 µM | – | – | 2.51 µM | – | – | decreased binding activity | – | – | – | – | –
CCC(C)[C@@H](CN(CC(=O)N[C@@H](CC(C)C)CN(CC(=O)N[C@@H](CC(C)C)CN(CC(N)=O)S(=O)(=O)Cc1ccccc1)S(=O)(=O)CC(C)C)S(C)(=O)=O)NC(=O)CN(C[C@H](CCCNC(=N)N)NC(=O)CN(C[C@H](CC(C)C)NC(=O)CN(C[C@@H](NC(=O)CN(C[C@H](CC(C)C)NC(=O)CN(C[C@H](CCCNC(=N)N)NC(=O)CN(C[C@H](CCCNC(=N)N)NC(=O)CN(C[C@H](CCC(=O)O)NC(C)=O)S(=O)(=O)CCN)S(C)(=O)=O)S(C)(=O)=O)S(=O)(=O)CCN)C(C)O)S(=O)(=O)CC(C)C)S(=O)(=O)CCN)S(C)(=O)=O (some centres unmarked) [Peptide 8] | 8.01 ± 0.82 µM | 7.2 ± 0.72 µM | – | – | 3.89 µM | – | – | inferior binding activity | – | – | – | – | –
